What all share (assay): DTP human tumour cell line panel, 48 h
The subject of assay [1] is A549 NSCLC.
In assay [2] the test system is HCT-15 colon.
Assay [3] has as its system KM12 colon.
The test system of assay [4] is MDA-MB-435.
In assay [5] the test system is SF-268 CNS.
Assay [6] has as its system SF-295 CNS.
Assay [7] relates to SF-539 CNS.
The subject of assay [8] is SK-MEL-28 melanoma.
Assay [9] relates to SK-MEL-5 melanoma.
Assay [10] relates to TK-10 renal.

Where “and” joins values, the source holds several entries; their conditions need not be identical. Identical values can stand only once.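 Following 48 hours of exposure in 96-well plates, responses at five concentrations were used to interpolate endpoints linearly. GI50 is the concentration that inhibits growth by half. TGI: total growth inhibition.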 Bounds are passed on as bounds.

As usually defined, the GI50 is the concentration that inhibits growth by half. For orientation: TGI means the concentration at which net growth stops. A lower TGI goes with more potent growth arrest. In the case of `O=C1N=C(Nc2nc(-c3csc(NC4=NC(=O)/C(=C\c5ccccc5)S4)n3)cs2)S/C1=C/c1ccccc1`, the GI50 was 16.3 µM in assay [1]; 11.2 µM in [2]; 11.2 µM in [3]; 14.7 µM in assay [4]; 16.6 µM in [5]; 16.6 µM in [6]. Besides, the GI50 in assay [7] was 13.6 µM; in [8], > 50 µM; in assay [9] it was 5.87 µM; in assay [10], 10.1 µM. Also, the TGI in assay [1], in [2], in assay [3], in [4], in [5] and in assay [6] was > 50 µM each time. Moreover, the concentration for total growth inhibition (TGI) in assay [7] is 39.7 µM; in assay [8], > 50 µM; in assay [9] it was 33.4 µM; in [10] it was 33.3 µM.
As to `CS(=O)(=O)N(c1cc(-c2ccc3ncnc(Nc4ccc(F)c(Cl)c4)c3c2)cnc1Cl)S(C)(=O)=O`, the GI50 was 1.98 µM in [1]; 0.945 µM in [2]; 2.43 µM in assay [3]; 1.83 µM in assay [4]; 0.868 µM in assay [5]; 1.25 µM in assay [6]. For the same compound, the GI50 in [7] is 1.05 µM; in [8], 0.54 µM; in assay [9] it was 0.978 µM; in [10], 0.44 µM. The TGI in [1] worked out at 11.2 µM; in assay [2] it was 13.9 µM; in assay [3], 9.81 µM; in assay [4], 17.2 µM; in [5], 7.61 µM; in assay [6], 4.92 µM. Further, the TGI in assay [7] was 4.83 µM; in assay [8], 4.93 µM; in assay [9], 2.42 µM; in assay [10] it was 3.73 µM.
For `COc1ccc2nc3cc(Cl)ccc3c(Nc3cc(CN4CCCC4)c(O)c(CN4CCCC4)c3)c2n1`, the GI50 in assay [1] is 1.29 µM; in assay [2] it was 1.18 µM; in assay [3], 1.66 µM; in [4] it was 1.6 µM; in assay [5], 1.28 µM; in assay [6], 2 µM. Also, the GI50 was 1.89 µM in assay [7], 2.15 µM in assay [8], 1.56 µM in [9] and 5.69 µM in [10]. Moreover, the TGI amounted to 22 µM in assay [1]; 10.6 µM in assay [2]; 10.9 µM in assay [3]; 3.07 µM in [4]; 3.55 µM in assay [5]; 6.51 µM in assay [6]. For the same compound, the concentration for total growth inhibition (TGI) in assay [7] was found to be 3.88 µM; in assay [8], 4.5 µM; in [9], 2.9 µM; in assay [10] it was 66.3 µM.
In the case of `COc1ccc(-c2cc(=O)c3c(O)c(OC)c(OC)c(OC)c3o2)cc1`, the TGI in assay [1] is > 100 µM; in [2], > 100 µM; in assay [3], 44.4 µM; in assay [4], > 100 µM; in assay [5] it was > 100 µM; in assay [6], > 100 µM. Moreover, the TGI in assay [7], in assay [8], in assay [9] and in assay [10] was > 100 µM in each case.
For the compound `CCCCn1c(=O)c(/C=C/C(=O)/C=C/c2cc3ccccc3n(CCCC)c2=O)cc2ccccc21`, the GI50 in assay [1] was 1.56 µM; in [2] it was 1.29 µM; in assay [3] it was 0.678 µM; in assay [4], 0.206 µM; in assay [5] it was 1.98 µM; in assay [6] it was 1.84 µM. Further, the GI50 in assay [7] was 1.47 µM; in assay [8], 1.81 µM; in assay [9], 1.77 µM; in [10], 1.78 µM. In addition, the TGI in [1] is 3.17 µM; in assay [2] it was 2.87 µM; in assay [3] it was 2.2 µM; in [4], 0.478 µM; in [5], 5.17 µM; in assay [6] it was 4.24 µM. Also, the TGI turned out to be 3.57 µM in [7], 3.48 µM in assay [8], 3.28 µM in [9] and 3.21 µM in assay [10].
As to `CCC1=C(CC2NCCc3ccccc32)CC2c3cc(OC)c(OC)cc3CCN2C1` (stereo not given), the GI50 in [1] was 3.49 µM; in assay [2], 5.17 µM; in assay [3], 3.32 µM; in [4], 3.51 µM; in assay [5], 3.13 µM; in assay [6] it was 3.73 µM. The GI50 in assay [7] was 4.84 µM; in [8], 4.35 µM; in assay [9], 3.39 µM; in assay [10] it was 6.08 µM. The TGI is 19.9 µM and 4.88 µM in assay [1]; 30.8 µM and 20.4 µM in assay [2]; 12.2 µM and 4.81 µM in assay [3]; 14.2 µM and 2.45 µM in assay [4]; 14 µM and 6.12 µM in assay [5]; 15 µM and 6.82 µM in [6]. The TGI was 16.4 µM and 2.85 µM in assay [7]; 14.4 µM and 9.26 µM in [8]; 13.1 µM and 2.7 µM in assay [9]; 30.4 µM and 3.83 µM in assay [10].
`COc1cc(CNc2oc(-c3ccccc3)c(-c3ccccc3)c2C#N)cc(CN2CCN(C)CC2)c1O`: the GI50 in assay [1] is 1.97 µM; in assay [2] it was 1.32 µM; in assay [3] it was 1.9 µM; in assay [4], 1.77 µM; in assay [5], 1.79 µM; in assay [6] it was 1.87 µM. Moreover, the GI50 in assay [7] is 1.72 µM; in [8], 1.78 µM; in [9] it was 1.62 µM; in assay [10], 1.62 µM. Also, the TGI came out at 4.16 µM in assay [1]; 2.77 µM in assay [2]; 3.55 µM in assay [3]; 3.26 µM in assay [4]; 3.7 µM in [5]; 3.49 µM in assay [6]. Also, the TGI amounted to 3.16 µM in [7], 3.24 µM in assay [8], 3.05 µM in assay [9] and 3.34 µM in assay [10].

(Values after PubChem BioAssay (NCI).)
